Experimental data: patent US20190077774A1, “PEROXISOME PROLIFERATOR-ACTIVATED RECEPTOR AGONISTS” (City of Hope, priority 2017, published 2019)
Values joined by “and” are separate entries in the source; they are usually repeats but may differ in a detail not shown here. Equal entries are not always repeated.

Target: T1, human PPARα (Homo sapiens, UniProt Q07869)
T1 construct: expressed in transfected cells; host or cells: CV-1 (monkey kidney) cells, transient transfection
T1 sequence (Q07869 159-468): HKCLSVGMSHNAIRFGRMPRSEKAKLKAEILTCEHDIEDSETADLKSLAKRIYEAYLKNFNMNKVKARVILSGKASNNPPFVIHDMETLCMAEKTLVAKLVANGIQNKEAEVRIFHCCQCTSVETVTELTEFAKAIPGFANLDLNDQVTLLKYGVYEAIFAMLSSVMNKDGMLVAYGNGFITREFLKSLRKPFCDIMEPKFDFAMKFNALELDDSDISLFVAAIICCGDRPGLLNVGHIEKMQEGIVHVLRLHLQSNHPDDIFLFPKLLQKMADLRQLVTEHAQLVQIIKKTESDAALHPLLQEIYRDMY
Assay: PPAR-GAL4 transactivation assay in transiently transfected CV-1 cells
Type: cell-based
Protocol: To assess the functional transcriptional activity of these compounds, cell-based assays using chimeric receptor Gal4 DNA-binding domain (DBD)-NR ligand binding domain cotransfection assay (LBDs of PPARα, PPARγ, and PPARδ) were performed. As an initial screen to determine the PPARα activity and selectivity, all compounds were evaluated for in vitro potency and selectivity by transfection testing, using CV-1 cells transfected with human and mouse PPARs. MH100×4 is a luciferase reporter with four copies of a GAL4 UASG response element, where GAL-I refers to the ligand-binding domain of the indicated receptor fused to the C-terminus of the GAL4 DNA-binding domain. Assays were performed using a Biomek automated workstation in which the genes for the nuclear receptor, as well as a plasmid containing a response element upstream of a luciferase cDNA, are transfected into CV-1 cells. Compounds were evaluated for their ability to activate human and mouse PPARs at […] test concentrations. […] The transactivation activity of the series of compounds (DY121-132, 10a-g) toward PPARα was expressed as EC50, which is the concentration of the test compound that affords half-maximum activity, as summarized in Table 1.
Cell-based reporter gene assays Cell based transactivation assays were performed in CV 1 cells as described (Forman, et al.). PPARα activity was assayed with a GAL4 reporter construct and fusion proteins containing the ligand binding domains of human PPARα, human PPARγ and human PPARδ linked to the DNA binding domain of yeast GAL4. Reporter constructs (300 ng/10^5 cells) and cytomegalovirus-driven expression vectors (20-50 ng/10^5 cells) were added as indicated along with CMX-b-gal (500 ng/10^5 cells) as an internal control. Cells were transiently transfected by Lipofectamine as described. Cells were incubated with DNA complexed liposomes for 2 h and subsequently treated for approximately 45 h with phenol red free DMEM FBS containing the indicated compounds. After exposure to ligand, the cells were harvested and assayed for luciferase and β-galactosidase activity. All points were assayed in triplicate and varied by less than 15%. Each experiment was repeated three or more times with similar results. Fold activation is reported.
In vitro binding and transfection studies. As an initial screen to determine the PPARα, PPARγ, and PPARδ activity, all compounds were evaluated for in vitro potency and selectivity by transfection testing, using CV-1 cells transfected with human and mouse PPARs. MH100×4 is a luciferase reporter with four copies of a GAL4 USAG response element, where GAL-I refers to the ligand-binding domain of the indicated receptor fused to the C-terminus of the GAL4 DNA-binding domain. Assays were performed using a Biomek automated workstation in which the gene for the nuclear receptor, as well as a plasmid containing a response element upstream of a luciferase cDNA, are transfected into CV-1 cells. Compounds were evaluated for their ability to activate human PPARs at 1, 2.5, 3, and 5 uM test concentrations.
Compounds were screened for agonist activity towards PPAR-GAL4 chimeric receptors in transiently transfected CV-1 cells as described. EC50 is the concentration of test compound that gave 50% maximum efficacy.

- fold greater PPARα agonistic activity compared to LY518674: 42 fold
- EC50 (PPAR-GAL4 chimeric receptor, CV-1 cells, read-out: EC50(nM) hPPARα): 0.85 nM and 1 nM
- selectivity over PPARγ and PPARδ (PPAR-GAL4 transactivation assays): excellent selectivity
Structure (SMILES): COc1ccc(Cn2c(CCCc3ccc(OC(C)(C)C(=O)O)cc3)nn(Cc3ccc(C)cc3)c2=O)cc1 [10a, 2-(4-{3-[4-(4-Methoxy-benzyl)-1-(4-methyl-benzyl)-5-oxo-4,5-dihydro-1H[1,2,4]triazol-3-yl]-propyl}-phenoxy)-2-methyl-propionic acid]
